Experimental findings from patent US20020132853A1, “Capsaicin receptor ligands” (priority 2000, published 2002) are described below.

Read-outs that look alike come from different tables or passages of the source. Where only a bound is given, the exact number is not on record here.

The target of the assay is T1, human capsaicin receptor (Homo sapiens, UniProt Q8NER1).
T1 construct: expression consrtuct encoding the full length human capsaicin receptor; expressed in transfected cells
Put plainly: Antagonist assay for Capsaicin receptor mediated calcium mobilization. The format is cell-based. The conditions noted are these: read-out: EC50 (the source's name). In a few lines:
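Cells expressing human capsaicin receptor, loaded with Fluo-3 AM, were preincubated 0.5–6 h at room temperature in the dark with test compound at 1–5 μM final in KRH buffer (pH 7.4, 2 mM CaCl2, probenecid). Capsaicin at its EC50 was then added via FLIPR; IC50 is the antagonist concentration halving the calcium signal.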
A general note: Calcium flux is commonly read through the fluorescence of an indicator in the cells.

T1 sequence (Q8NER1 whole entry): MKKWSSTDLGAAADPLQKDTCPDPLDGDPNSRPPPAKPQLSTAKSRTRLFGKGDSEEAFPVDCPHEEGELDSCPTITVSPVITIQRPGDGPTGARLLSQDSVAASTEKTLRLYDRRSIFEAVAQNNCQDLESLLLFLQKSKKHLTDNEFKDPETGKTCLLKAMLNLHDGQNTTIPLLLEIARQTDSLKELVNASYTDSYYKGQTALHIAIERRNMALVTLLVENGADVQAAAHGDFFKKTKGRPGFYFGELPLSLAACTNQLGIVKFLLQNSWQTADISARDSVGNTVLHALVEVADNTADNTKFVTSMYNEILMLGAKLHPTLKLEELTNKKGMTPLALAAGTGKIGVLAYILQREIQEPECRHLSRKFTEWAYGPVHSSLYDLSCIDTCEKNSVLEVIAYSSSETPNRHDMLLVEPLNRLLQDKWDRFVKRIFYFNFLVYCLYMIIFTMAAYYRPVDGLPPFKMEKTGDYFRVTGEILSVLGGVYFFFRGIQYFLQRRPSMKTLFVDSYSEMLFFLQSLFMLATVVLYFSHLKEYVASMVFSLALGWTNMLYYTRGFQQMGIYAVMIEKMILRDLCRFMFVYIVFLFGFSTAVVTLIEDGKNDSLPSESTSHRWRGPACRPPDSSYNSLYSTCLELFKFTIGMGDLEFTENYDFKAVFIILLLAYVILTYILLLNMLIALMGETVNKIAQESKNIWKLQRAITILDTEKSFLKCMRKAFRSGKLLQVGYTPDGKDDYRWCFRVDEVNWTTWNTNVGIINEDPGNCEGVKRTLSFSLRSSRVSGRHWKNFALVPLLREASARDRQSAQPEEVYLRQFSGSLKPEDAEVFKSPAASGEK

Take `C[C@@H]1CN(c2ncc([N+](=O)[O-])cc2Cl)CCN1C(=O)Nc1ccc(C(F)(F)F)cc1` [Compound 131, (2R)-4-(3-chloro-5-nitrpyridin-2-yl)-2-methyl-N-[4-(trifluoromethyl)phenyl]piperazine-1-carboxamide]: under “Table V”, the IC50 is less than 1000 nM. Still for that read-out and setting: the result for `C[C@@H]1CN(c2ncc(N)cc2Cl)CCN1C(=O)Nc1ccc(C(F)(F)F)cc1` [Compound 132, (2R)-4-(5-amino-3-chloropyridin-2-yl)-2-methyl-N-[4-(trifluoromethyl)phenyl]piperazine-1-carboxamide] reads less than 1000 nM. The same measure, in the same setting: under `C[C@@H]1CN(c2ncccc2S(N)(=O)=O)CCN1C(=O)Nc1ccc(C(C)(C)C)cc1` [Compound 139, (2R)-4-[3-(aminosulfonyl)pyridin-2-yl]-N-(4-tert-butylphenyl)-2-methylpiperazine-1-carboxamide] stands less than 1000 nM; under `C[C@@H]1CN(c2ncccc2Cl)CCN1C(=O)Nc1ccc(C(=O)c2ccccc2)cc1` [Compound 140, (2R)-N-(4-benzoylphenyl)-4-(3-chloropyridin-2-yl)-2-methylpiperazine-1-carboxamide], less than 1000 nM. On to `C[C@@H]1CN(c2ncccc2Cl)CCN1C(=O)Nc1ccc(I)cc1` [Compound 141, (2R)-4-(3-chloropyridin-2-yl)-N-(4-iodophenyl)-2-methylipierazine-1-carboxamide], for which the IC50 (Table V) is less than 1000 nM.

Turning to `C[C@@H]1CN(c2ncccc2Cl)CCN1C(=O)Nc1ccc2c(c1)Cc1ccccc1-2` [Compound 142, (2R)-4-(3-chloropyridin-2-yl)-N-(9H-flouren-2-yl)-2-methylpiperazine-1-carboxamide], where the note is “Table V”, the IC50 was less than 1000 nM.

Turning to `C[C@@H]1CN(c2ncccc2C(F)(F)F)CCN1C(=O)Nc1ccc2c(c1)Cc1ccccc1-2` [Compound 143, (2R)-N-(9H-fluoren-2-yl)-2-methyl-4-[3-(trifluoromethyl)pyridin-2-yl]piperazine-1-carboxamide], the IC50 (Table V) is less than 1000 nM. Still for that read-out and setting: the result for `C[C@@H]1CN(c2ncccc2Cl)CCN1C(=O)Nc1ccc(C(C(F)(F)F)(C(F)(F)F)C(F)(F)F)cc1` [Compound 148, *2R)-4-(3-chloropyridin-2-yl)-2-methyl_n_{4-[2,2,2-trifluoro-1,1-bis(trifluoromethyl)-ethyl]phenyl}piperazine-1-carboxamide] reads less than 1000 nM. For the molecule `C[C@@H]1CN(c2ncccc2C(F)(F)F)CCN1C(=O)Nc1ccc(C(C(F)(F)F)(C(F)(F)F)C(F)(F)F)cc1` [Compound 149, (2R)-2-methyl-N-{4-[2,2,2-trifluoro-1,1-bis(trifluoromethyl)-ethyl]phenyl}-4-[3-(trifluoromethyl)pyridin-2-yl]piperazine-1-carboxamide], the IC50 (Table V) was less than 1000 nM. Same read-out and setting: the result for `C[C@@H]1CN(c2ncccc2Cl)CCN1C(=O)Nc1cccc(I)c1` [Compound 150, (2R)-4-(3-chloropyridin-2-yl)-N-(3-iodophenyl)-2-methylpiperazine-1-carboxamide] reads less than 1000 nM; that for `C[C@@H]1CN(c2ncccc2F)CCN1C(=O)Nc1cccc(I)c1` [Compound 151, (2R)-4-(3-fluoropyridin-2-yl)-N-(3-iodophenyl)-2-methylpiperazine-1-carboxamide], less than 1000 nM. The same measure, in the same setting: under `CCCCc1ccc(NC(=O)N2CCN(c3ncccc3Cl)C[C@H]2C)cc1` [Compound 152, (2R)-N-(4-butylphenyl)-4-(3-chloropyridin-2-yl)-2-methylpiperazine-1-carboxamide] stands less than 1000 nM.

On to `O=C(Nc1ccc(C(F)(F)F)cc1)N1CCN(c2ncccc2C(F)(F)F)CC1CF` (centres unmarked) [Compound 153, 2-(fluoromethyl)-N-[4-(trifluoromethyl)phenyl]-4-[3-(trifluoromethyl)pyridin-2-yl]piperazine-1-carboxamide], for which the IC50 (Table V) is less than 1000 nM. In the case of `Cc1ccc(NC(=O)N2CCN(c3ncccc3C(F)(F)F)C[C@H]2C)cc1C(F)(F)F` [Compound 155, (2R)-2-methyl-N-[4-methyl-3-(trifluoromethyl)phenyl]-4-[3-(trifluoromethyl)pyridin-2-yl]piperazine-1-carboxamide], for the setting “Table V”, the IC50 was less than 1000 nM. The same measure, in the same setting: the result for `C[C@@H]1CN(c2ncccc2Cl)CCN1C(=O)Nc1ccc(Br)c(C(F)(F)F)c1` [Compound 156, (2R)-N-[4-bromo-3-(trifluoromethyl)phenyl]-4-(3-chloropyridin-2-yl)-2-methylpiperazine-1-carboxamide] reads less than 1000 nM; that for `C[C@@H]1CN(c2ncccc2C(F)(F)F)CCN1C(=O)Nc1ccc(Br)c(C(F)(F)F)c1` [Compound 157, (2R)-N-[4-bromo-3-(trifluoromethyl)phenyl]-2-methyl-4-[3-(trifluoromethyl)pyridin-2-yl]piperazine-1-carboxamide], less than 1000 nM. Still for that read-out and setting: under `C[C@@H]1CN(c2ncccc2Cl)CCN1C(=O)Nc1ccc(Cl)c(C(F)(F)F)c1` [Compound 158, (2R)-4-(3-chloropyridin-2-yl)-N-[4-chloro-3-(trifluoromethyl)phenyl]-2-methylpiperazine-1-carboxamide] stands less than 1000 nM; under `C[C@@H]1CN(c2ncccc2Cl)CCN1C(=O)Nc1ccc(F)c(C(F)(F)F)c1` [Compound 159, (2R)-4-(3-chlorpyridin-2-yl)-N-[4-fluoro-3-(trifluoromethyl)phenyl]-2-methylpiperazine-1-carboxamide], less than 1000 nM. As to `C[C@@H]1CN(c2ncccc2C(F)(F)F)CCN1C(=O)Nc1ccc(Cl)c(C(F)(F)F)c1` [Compound 160, (2R)-N-[4-chloro-3-(trifluoromethyl)phenyl]-2-methyl-4-[3-(trifluoromethyl)pyridin-2-yl]piperazine-1-carboxamide], the IC50 (Table V) was less than 1000 nM.

As to `C[C@@H]1CN(c2ncccc2C(F)(F)F)CCN1C(=O)Nc1ccc(F)c(C(F)(F)F)c1` [Compound 161, (2R)-N-[4-fluoro-3-(trifluoromethyl)phenyl]-2-methyl-4-[3-(trifluoromethyl)pyridin-2-yl]piperazine-1-carboxamide], the IC50 (Table V) is less than 1000 nM. Same read-out and setting: under `C[C@@H]1CN(c2ncccc2Cl)CCN1C(=O)Nc1ccc(C(F)(C(F)(F)F)C(F)(F)F)cc1` [Compound 162, (2R)-4-(3-chloropyridin-2-yl)-2-methyl-N-{4-[1,2,2,2-tetrafluoro-1-(trifluoromethyl)ethyl]phenyl}piperazine-1-carboxamide] stands less than 1000 nM; under `C[C@@H]1CN(c2ncccc2C(F)(F)F)CCN1C(=O)Nc1ccc(C(F)(C(F)(F)F)C(F)(F)F)cc1` [Compound 163, (2R)-2-methyl-N-{4-[1,2,2,2-tetrafluoro-1-(trifluoromethyl)ethyl]phenyl}-4-[3-(trifluoromethyl)pyridin-2-yl]piperazine-1-carboxamide], less than 1000 nM.

In the case of `C[C@@H]1CN(c2nccnc2Cl)CCN1C(=O)Nc1ccc(C(F)(C(F)(F)F)C(F)(F)F)cc1` [Compound 164, (2R)-4-(3-chloropyrazin-2-yl)-2-methyl-N-{4-[1,2,2,2-tetrafluoro-1-(trifluoromethyl)ethyl]phenyl}piperazine-1-carboxamide], the IC50 (Table VI) was less than 1000 nM.

For `C[C@@H]1CN(c2nccnc2Cl)CCN1C(=O)Nc1ccc(C2CCCC2)cc1` [Compound 165, (2R)-4-(3-chloropyrazin-2-yl)-2-methyl-N-{4-cyclopentyl-phenyl}piperazine-1-carboxamide], the IC50 (Table VI) is less than 1000 nM. On the same count and under the same terms, under `C[C@@H]1CN(c2nccnc2Cl)CCN1C(=O)Nc1ccc(C2CCCCC2)cc1` [Compound 166, (2R)-4-(3-chloropyrazin-2-yl)-2-methyl-N-{4-cyclohexyl-phenyl}piperazine-1-carboxamide] stands less than 1000 nM; under `CCCCc1ccc(NC(=S)N2CCN(c3ncccc3Cl)C[C@H]2C)cc1` [Compound 167], less than 1000 nM; under `C[C@@H]1CN(c2ncccc2Cl)CCN1C(=S)Nc1ccc(C(C)(C)C)cc1` [Compound 168], less than 1000 nM.

With `CC(C)c1ccc(NC(=S)N2CCN(c3ncccc3Cl)C[C@H]2C)cc1` [Compound 169], the IC50 (Table VI) is less than 1000 nM. With `CC(C)c1ccc(NC(=S)N2CCN(c3ncccc3Cl)C[C@@H]2C)cc1` [Compound 170], the IC50 (Table VI) was less than 1000 nM.

Consider `C[C@H]1CN(c2ncccc2Cl)CCN1C(=S)Nc1ccc(C(C)(C)C)cc1` [Compound 171], for which the IC50 (Table VI) is less than 1000 nM. The same measure, in the same setting: under `C[C@@H]1CN(c2ncccc2Cl)CCN1C(=S)Nc1ccc(C(F)(F)F)cc1` [Compound 172] stands less than 1000 nM; under `C[C@@H]1CN(c2ncccc2Cl)CCN1C(=O)Oc1ccc(C(C)(C)C)cc1` [Compound 173], less than 1000 nM.
